Results reported in publication PMC5854701 (Scientific Reports, 2018).

Columns and labels:
Assay in all cases: microbe, parasite or virus in culture
[1] = test system: A/Denmark/524/2009 (H1N1)
[2] = test system: B/Utah/09/2014 (Yamagata); conditions: Influenza B virus
[3] = test system: A/California/07/2009 (H1N1)
[4] = test system: A/Switzerland/9715293/2013 (H3N2)
[5] = test system: A/Washington/29/2009 (H1N1)
[6] = test system: A/Texas/04/2009 (H1N1)
[7] = test system: A/Denmark/528/2009 (H1N1)
[8] = test system: B/Brisbane/60/2008 (Victoria); conditions: Influenza B virus
[9] = test system: B/Phuket/3073/2013 (Yamagata); conditions: Influenza B virus
[10] = test system: B/Wisconsin/1/2010 (Yamagata); conditions: Influenza B virus
[11] = test system: B/Memphis/20/1996 (Yamagata); conditions: Influenza B virus

Row | Compound | EC50 [1] [nM] | EC50 [2] [nM] | EC50 [3] [nM] | EC50 [4] [nM] | EC50 [5] [nM] | EC50 [6] [nM] | EC50 [7] [nM] | EC50 [8] [nM] | EC50 [9] [nM] | EC50 [10] [nM] | EC50 [11] [nM]
1 | C[C@@H](c1ccccc1)n1nnnc1[C@H](c1ccsc1)N1CCC(n2c(=O)[nH]c3ccccc32)CC1 [Compound 12a, 1‐{1‐[(S)‐{1‐[(1 S)‐1‐phenylethyl]‐1 H‐1,2,3,4‐tetrazol‐5‐yl}(thiophen‐3‐yl)methyl]piperidin‐4‐yl}‐2,3‐dihydro‐1 H‐1,3‐benzodiazol‐2‐one] | 800 ± 200 | 1500 ± 300 | 1300 ± 400 | 1400 ± 600 | 900 ± 300 | 1100 ± 400 | 900 ± 300 | 600 ± 300 | 1200 ± 200 | 800 ± 300 | 2700 ± 200
2 | O=c1[nH]c2ccccc2n1C1CCN(C(CCc2ccccc2)c2nnnn2-c2ccc3c(c2)OCCO3)CC1 (centres unmarked) [Compound 5, 1‐(1‐{1‐[1‐(2,3‐dihydro‐1,4‐benzodioxin‐6‐yl)‐1,2,3,4‐tetrazol‐5‐yl]‐3‐phenylpropyl}piperidin‐4‐ yl)‐3 H‐1,3‐benzodiazol‐2‐one] | 1800 ± 400 |  | 4500 ± 700 |  | 1600 ± 500 | 3500 ± 1100 |  | 1000 ± 300 |  | 900 ± 200 | 
